This note sets out measurements from patent publication US11718612B2, “Inhibitors of receptor interacting protein kinase I for the treatment of disease” (Board of Regents, The University of Texas System, priority 2019, dated 2023).

The structures appear in SMILES notation. Bounds are passed on as bounds.

Test [1] has as its target RIPK1 (Homo sapiens (Human), UniProt Q13546). As to the kind of experiment: ADP-Glo kinase assay, RIPK1 activity. The test is classed as biochemical. As to conditions: 5 nM RIPK1, 50 μM ATP, 6 hr reaction. The procedure:
In order to measure RIPK1 activity the ADP-Glo kinase assay (Promega, Catalog #V7002) was used to measure the conversion of ATP to ADP. This enzymatic assay was performed in a 384-well white, Optiplate (Perkin Elmer, Catalog #6007299) with assay buffer consisting of 50 mM HEPES pH 7.5 (Gibco, Catalog #15630-080), 50 mM NaCl (Teknova, Catalog #S0252), 30 mM MgCl2 (Ambion, Catalog #AM9530G), 1 mM DTT (Santa Cruz Biotechnology, Catalog #sc-29089), 0.05% BSA (Sigma, Catalog #A3059-50G) and 0.02% CHAPS (Sigma, Catalog #C5070-5G). Stock solutions of the test compounds were prepared in 100% DMSO (Sigma, Catalog #D2650) and serially diluted 1:3 using 100% DMSO. Compounds were additionally diluted 1:40 in assay buffer, and 2 μL/well were transferred to the assay plate. 4 μL/well (final concentration of 5 nM) of RIPK1 protein (SignalChem, Catalog #R07-11G-05) diluted in assay buffer and added to the assay plate followed by a 10 minute preincutation at room temperature. 4 μL/well of ATP (Promega, Catalog #V7002) (final concentration of 50 μM) diluted in assay buffer were then added to the assay plate followed by a 6 hr reaction time. Final concentrations of RIPK1 and ATP refer to a 10 μL volume. Luminescence was measured using a BioTek Synergy™ NEO plate reader. IC50 values were calculated using a four-parameter logistic curve fit using Genedata Screener software.

Test [2] relates to U937 cells. As to the kind of experiment: Human U937 cellular necroptosis assay. The test is classed as cell-based. As to conditions: U-937; U937 cells stimulated with 25 ng/mL human TNFalpha and 25 μM z-VAD-FMK; 22 hr; Cell Titer-Glo viability.

RIPK1, sequence (Q13546 1-327): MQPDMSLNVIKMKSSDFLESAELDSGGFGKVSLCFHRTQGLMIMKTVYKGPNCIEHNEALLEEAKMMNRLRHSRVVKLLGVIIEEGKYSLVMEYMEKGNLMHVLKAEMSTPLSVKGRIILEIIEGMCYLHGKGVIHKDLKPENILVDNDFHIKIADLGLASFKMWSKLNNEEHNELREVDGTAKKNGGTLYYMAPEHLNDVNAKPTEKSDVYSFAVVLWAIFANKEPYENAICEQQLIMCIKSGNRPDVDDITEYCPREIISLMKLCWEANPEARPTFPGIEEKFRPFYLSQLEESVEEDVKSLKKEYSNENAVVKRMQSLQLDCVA

Regarding `Cc1nc(C(=O)Nc2cccc(Cl)c2F)nn1Cc1ccccc1` [Example 13, 1-benzyl-N-(3-chloro-2-fluorophenyl)-5-methyl-1H-1,2,4-triazole-3-carboxamide], the values for the IC50 in test [1] and in test [2] were 41.9 nM and 1270 nM, respectively.
The corresponding values for `O=C(Nc1cccc(Cl)c1F)c1nnc(Cc2ccccc2)o1` [Example 19, 5-Benzyl-N-(3-chloro-2-fluorophenyl)-1,3,4-oxadiazole-2-carboxamide] are 1010 nM and more than 10000 nM.
The corresponding values for `O=C(Nc1ccccc1F)c1n[nH]c(Cc2ccccc2)n1` [Example 20, 5-benzyl-N-(2-fluorophenyl)-1H-1,2,4-triazole-3-carboxamide] are 521 nM and 6230 nM.
For `O=C(Nc1cccc(Cl)c1)c1n[nH]c(Cc2ccccc2)n1` [Example 21, 5-benzyl-N-(3-chlorophenyl)-1H-1,2,4-triazole-3-carboxamide], in that order: 854 nM and more than 10000 nM.
With `O=C(Nc1cccc(F)c1F)c1n[nH]c(Cc2ccccc2)n1` [Example 22, 5-benzyl-N-(2,3-difluorophenyl)-1H-1,2,4-triazole-3-carboxamide], the IC50 was 1570 nM in test [1] and more than 10000 nM in test [2].
The corresponding values for `O=C(Nc1cc(F)cc(F)c1F)c1n[nH]c(Cc2ccccc2)n1` [Example 23, 5-benzyl-N-(2,3,5-trifluorophenyl)-1H-1,2,4-triazole-3-carboxamide] are 2260 nM and more than 10000 nM.
The corresponding values for `O=C(Nc1cc(Cl)cc(Cl)c1)c1n[nH]c(Cc2ccccc2)n1` [Example 24, 5-benzyl-N-(3,5-dichlorophenyl)-1H-1,2,4-triazole-3-carboxamide] are 3360 nM and more than 10000 nM.
On to `Cn1cc(-c2cc(Cl)c(F)c(NC(=O)c3n[nH]c(Cc4ccccc4)n3)c2)cn1` [Example 25, 5-benzyl-N-(3-chloro-2-fluoro-5-(1-methyl-1H-pyrazol-4-yl)phenyl)-1H-1,2,4-triazole-3-carboxamide], for which the IC50 is 4350 nM in test [1] and 10000 nM in test [2].
For `O=C(Nc1cccc(Cl)c1F)c1ncn(Cc2ccccc2)n1` [Example 27, 1-benzyl-N-(3-chloro-2-fluorophenyl)-1H-1,2,4-triazole-3-carboxamide], in that order: 30.6 nM and 851 nM.
On to `O=C(Nc1ccc(F)c(Cl)c1F)c1ncn(Cc2ccccc2)n1` [Example 28, 1-benzyl-N-(3-chloro-2,4-difluorophenyl)-1H-1,2,4-triazole-3-carboxamide], for which the IC50 in test [1] amounted to 40.3 nM; in test [2], 1470 nM.
The corresponding values for `N#Cc1cccc(Cn2cnc(C(=O)Nc3cccc(Cl)c3F)n2)c1` [Example 29, N-(3-chloro-2-fluorophenyl)-1-(3-cyanobenzyl)-1H-1,2,4-triazole-3-carboxamide] are 34.1 nM and 356 nM.
For `COc1ccc(NC(=O)c2ncn(Cc3ccccc3)n2)c(F)c1Cl` [Example 30, 1-benzyl-N-(3-chloro-2-fluoro-4-methoxy-phenyl)-1H-1,2,4-triazole-3-carboxamide], in that order: 110 nM and 1490 nM.
The corresponding values for `O=C(Nc1ccc(O)c(Cl)c1F)c1ncn(Cc2ccccc2)n1` [Example 31, 1-benzyl-N-(3-chloro-2-fluoro-4-hydroxy-phenyl)-1H-1,2,4-triazole-3-carboxamide] are 160 nM and 1700 nM.
Regarding `O=C(Nc1cccc(Cl)c1F)c1ncn(Cc2cnccn2)n1` [Example 32, N-(3-chloro-2-fluoro-phenyl)-1-(pyrazin-2-ylmethyl)-1H-1,2,4-triazole-3-carboxamide], the figures for the IC50 in test [1] and in test [2] were 257 nM and 1920 nM, respectively.
For `N#Cc1ccc(Cn2cnc(C(=O)Nc3cccc(Cl)c3F)n2)cc1` [Example 33, N-(3-chloro-2-fluoro-phenyl)-1-(4-cyano-benzyl)-1H-1,2,4-triazole-3-carboxamide], in that order: 389 nM and 5420 nM.
For `N#Cc1cc(Cl)c(F)c(NC(=O)c2ncn(Cc3ccccc3)n2)c1` [Example 35, 1-benzyl-N-(3-chloro-5-cyano-2-fluorophenyl)-1H-1,2,4-triazole-3-carboxamide], in that order: 703 nM and 7290 nM.
For the molecule `Cn1cc(-c2cc(Cl)c(F)c(NC(=O)c3ncn(Cc4ccccc4)n3)c2)cn1` [Example 36, 1-benzyl-N-(3-chloro-2-fluoro-5-(1-methyl-1H-pyrazol-4-yl)phenyl)-1H-1,2,4-triazole-3-carboxamide], the IC50 in test [1] came out at 804 nM; in test [2], 10000 nM.
Take `O=C(Nc1cccc(Cl)c1F)c1nc2n(n1)[C@H](c1ccccc1)C[C@@H]2F` [Example 47, (5S,7S)—N-(3-chloro-2-fluorophenyl)-7-fluoro-5-phenyl-6,7-dihydro-5H-pyrrolo[1,2-b][1,2,4]triazole-2-carboxamide]: the IC50 stood at 48.4 nM in test [1] and 24.8 nM in test [2].
As to `O=C1c2nn(Cc3cc(F)ccc3F)c(Cl)c2CCN1c1cccc(Cl)c1F` [Example 50, 3-Chloro-6-(3-chloro-2-fluorophenyl)-2-(2,5-difluorobenzyl)-5,6-dihydro-2H-pyrazolo[3,4-c]pyridin-7(4H)-one], the results for the IC50 in test [1] and in test [2] were 18.6 nM and 42.5 nM, respectively.
The corresponding values for `O=C(Nc1ccc(OC(F)(F)F)cc1F)c1ncn(Cc2ccccc2)n1` [Example 51, 1-benzyl-N-(2-fluoro-4-(trifluoromethoxy)-phenyl)-1H-1,2,4-triazole-3-carboxamide] are 807 nM and 8240 nM.
The corresponding values for `Cc1nc(C(=O)Nc2ccc(OC(F)(F)F)cc2)nn1Cc1ccccc1` [Example 52, 1-benzyl-5-methyl-N-(4-(trifluoromethoxy)-phenyl)-1H-1,2,4-triazole-3-carboxamide] are 4620 nM and more than 10000 nM.
The corresponding values for `O=C1c2nn(Cc3cncc(F)c3)c(Cl)c2CCN1c1cccc(Cl)c1F` [Example 54, 3-Chloro-6-(3-chloro-2-fluorophenyl)-2-((5-fluoropyridin-3-yl)methyl)-5,6-dihydro-2H-pyrazolo[3,4-c]pyridin-7(4H)-one] are 131 nM and 128 nM.
With `COc1c2c(nn1Cc1cc(F)ccc1F)C(=O)N(c1cccc(Cl)c1F)CC2` [Example 57, 6-(3-Chloro-2-fluorophenyl)-2-(2,5-difluorobenzyl)-3-methoxy-5,6-dihydro-2H-pyrazolo[3,4-c]pyridin-7(4H)-one], the IC50 in test [1] came to 22 nM; in test [2], 115 nM.
The corresponding values for `NC(=O)c1cccc(Cn2nc3c(c2Cl)CCN(c2cccc(Cl)c2F)C3=O)c1` [Example 75, 3-((3-chloro-6-(3-chloro-2-fluorophenyl)-7-oxo-4,5,6,7-tetrahydro-2H-pyrazolo[3,4-c]pyridin-2-yl)methyl)benzamide] are 297 nM and 1160 nM.
The corresponding values for `Cc1ccc(Cn2cnc(C(=O)Nc3cccc(Cl)c3F)n2)cc1` [Example 86, N-(3-chloro-2-fluorophenyl)-1-(4-methylbenzyl)-1H-1,2,4-triazole-3-carboxamide] are 564 nM and 2080 nM.
The corresponding values for `Cc1ccc(Cn2cnc(C(=O)Nc3cccc(Cl)c3F)n2)cc1F` [Example 87, N-(3-chloro-2-fluorophenyl)-1-(3-fluoro-4-methylbenzyl)-1H-1,2,4-triazole-3-carboxamide] are 32.2 nM and 4300 nM.
Consider `O=C(Nc1cccc(Cl)c1F)c1ncn(Cc2cccc(F)c2)n1` [Example 88, N-(3-chloro-2-fluorophenyl)-1-(3-fluorobenzyl)-1H-1,2,4-triazole-3-carboxamide], for which the IC50 in test [1] was 36.3 nM; in test [2], 872 nM.
For `O=C(Nc1cccc(Cl)c1F)c1ncn(Cc2ccc(F)cn2)n1` [Example 89, N-(3-chloro-2-fluorophenyl)-1-((5-fluoropyridin-2-yl)methyl)-1H-1,2,4-triazole-3-carboxamide], in that order: 1600 nM and 5580 nM.
With `Cc1ccc(Cn2cnc(C(=O)Nc3cccc(Cl)c3F)n2)cn1` [Example 90], the values for the IC50 in test [1] and in test [2] were 1460 nM and 2600 nM, respectively.
The corresponding values for `O=C(Nc1cccc2nn[nH]c12)c1ncn(Cc2ccccc2)n1` [Example 100, N-(1H-benzo[d][1,2,3]triazol-7-yl)-1-benzyl-1H-1,2,4-triazole-3-carboxamide] are 685 nM and 4140 nM.
For `O=C1c2nn(Cc3cc(F)ccc3F)c(Br)c2CCN1c1cccc(Cl)c1F` [Example 101, 3-Bromo-6-(3-chloro-2-fluorophenyl)-2-(2,5-difluorobenzyl)-2,4,5,6-tetrahydro-7H-pyrazolo[3,4-c]pyridin-7-one], in that order: 17.4 nM and 16.2 nM.
